Peptide text beside a SMILES is read from it.
Target: T1, FBXO44^FBA (Homo sapiens, UniProt Q9H4M3)
T1 construct: we expressed and purified only this domain for all in vitro studies; 6xHis (N, cleaved yes); MBP (N, cleaved yes); made in house; host or cells: Escherichia coli Rosetta BL21 (λDE3)
T1 sequence (Q9H4M3 71-252 limits assumed): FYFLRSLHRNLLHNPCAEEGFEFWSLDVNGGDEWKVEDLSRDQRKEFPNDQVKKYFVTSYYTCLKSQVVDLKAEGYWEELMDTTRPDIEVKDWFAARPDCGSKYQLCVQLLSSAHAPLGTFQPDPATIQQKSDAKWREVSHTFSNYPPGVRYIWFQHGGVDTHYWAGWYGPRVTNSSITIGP
Test: Surface plasmon resonance, immobilized RGS2^5–16 peptide
Conditions: Biacore X100; peptide immobilized on CM5 chip by amine coupling; FBXO44^FBA analyte 0.29–75 μM, contact time 60 s; nonlinear fit of saturation binding; preliminary
From the text: However, evidence of a direct interaction between RGS2 and FBXO44 has, until now, not yet been established. Thus, we first aimed to verify that purified FBXO44 would bind the degron sequence in vitro. […] This also circumvented the issue that full-length FBXO44 (as well as all other F-box proteins) is very difficult to express in the absence of an adaptor protein, such as Skp1 ([30]). To test the ability of the FBA domain to bind the RGS2 degron specifically, a peptide corresponding to residues Met^5–Met^16 (MFLAVQHDRCPM; herein referred to as RGS2^5–16; Fig. 1A) was dotted onto a polyvinylidene difluoride (PVDF) membrane at increasing amounts (Fig. 1B). […] The membrane was then incubated with FLAG-tagged FBXO44 FBA domain (FBXO44^FBA) and subjected to immunoblotting using a FLAG antibody. […] To get an estimate of the binding affinity between FBXO44^FBA, we next performed surface plasmon resonance (SPR) with the RGS2^5–16 peptide anchored on the chip and FBXO44^FBA as the analyte.
RGS2^5–16 peptide was immobilized onto a CM5 chip (Cytiva; BR100012) using amine coupling (Cytiva; BR100557) following the manufacturer's protocol. RGS2^5–16 peptide (150 μg/ml) in 10 mM NaOAc, pH 4.0, was loaded into the Biacore X100 sample rack. […] The RU at equilibrium was subtracted from the nonspecific binding detected in Fc1 and measured for each concentration. […]

## CSCC[C@H](NC(=O)[C@@H]1CCCN1C(=O)[C@H](CCCNC(=N)N)NC(=O)[C@H](CS)NC(=O)[C@H](CC(=O)O)NC(=O)[C@H](Cc1c[nH]cn1)NC(=O)[C@H](CCC(N)=O)NC(=O)[C@@H](NC(=O)[C@H](C)NC(=O)[C@H](CC(C)C)NC(=O)[C@H](Cc1ccccc1)NC(=O)[C@@H](N)CCSC)C(C)C)C(=O)O [RGS2^5–16] (H-MFLAVQHDCRPM-OH)
  Kd: 2090 nM
